Experimental data: patent US11180791B2, “MYO1A for predicting conversion of acute pain into chronic pain and use of MYO1A for therapy of pain” (UNIVERSITE D'AIX-MARSEILLE, priority 2016, dated 2021)
“Also recorded” adds a separate entry of the source.

Legend:
WT and Myo1a KO mice [1] = experiment: Spared nerve injury (SNI) neuropathic pain model, mechanical thresholds (Von Frey, up-down); type: in vivo; conditions: for reversal of SNI-induced mechanical hypersensitivity: both genotypes (WT and Myo1a KO), i.t 10 nmol SNC80, 0.2 nmol DAMGO, 0.1 μg baclofen, 2 μg TAFA4, 40 μg taurine, i.p 3 mg/kg pregabalin
Experimental: (A-D) Mechanical responses of WT and KO mice following SNI surgery and i.t administration at indicated time-points of 10 nmol of SNC80, 0.2 nmol of DAMGO (A), 0.1 μg of baclofen, 2 μg of TAFA4 (n=6 mice per genotype) (B), 40 μg of taurine, i.p administration of 3 mg/kg of pregabalin (n=8 mice per genotype) (C) and i.t administration of 0.15 μg of muscimol (n=8 mice per genotype) (D).
(§1) SNC80 (Tocris Bioscience) was dissolved in a 100 mM HCl solution, DAMGO (Sigma Aldrich) was dissolved in saline (0.9% NaCl), Baclofen (Sigma Aldrich) was dissolved in H2O (pH7.6), recombinant human TAFA4 (R&D Systems) was dissolved in saline, Diazepam (DZP, Roche) was dissolved in 10% dimethyl sulfoxide (DMSO)/90% saline, Muscimol (Tocris Bioscience), Taurine (Sigma Aldrich), Bicuculline (Sigma Aldrich) and Pregabalin (Sigma Aldrich) were dissolved in Phosphate Buffer (PB, 50 mM, pH 7.4).
(§2) Except for pregabalin, all drugs were administrated via intratechal (i.t) injection. Pregabalin was injected intra-peritoneally (i.p).
(§3) All behavioral analyses were conducted on 8-12 weeks old Myo1a KO and WT males. All experiments were carried at room temperature (˜22° C.). Animals were acclimated for one hour to their testing environment prior to all experiments. Experimenters were blind to the genotype of the mice during testing. All error bars represent SEM. All statistical analysis was carried using Two Way Repeated Measures ANOVA followed by Bonferroni's post-hoc test. Openfield, Rotarod, Hot plate and Formalin tests were carried as described in Gaillard et al., 2014 (Gaillard et al., 2014).
(§4) Mechanical thresholds of the plantar surface were determined using Von Frey's filaments with the up-down method (Chaplan et al., 1994), previously as described (Gaillard et al., 2014) prior to and at several time-points after inflammation, neuropathy and paw-incision surgery.
Spared nerve injury surgery was performed as described (Shields et al., 2003). Briefly, mice were anesthetized with a mix of ketamine/xylazine and an incision was made through the skin and thigh muscle at the level of the trifurcation of the sciatic nerve. The common sural and peroneal nerves were ligated using a 6.0 silk filament (Ethicon, Piscataway, N.J., USA) and transected, while leaving the tibial nerve intact. After surgery, the animals were allowed to recover in a warming chamber, and then they were returned to their home cages. Mechanical thresholds were determined at days 7, 9 and 14 post-surgery, before and after drug administration.

WT and Myo1a KO mice [2] = experiment: Zymosan-A induced inflammatory pain model, mechanical thresholds (Von Frey, up-down); type: in vivo; conditions: for reversal of zymosan-induced mechanical hypersensitivity: i.t 0.15 μg muscimol, 0.09 mg/kg DZP
Experimental: (E-G) Mechanical responses of WT and KO mice following zymosan-induced inflammation (n=9 mice per genotype) (E) and i.t administration at indicated time-points of 0.15 μg of muscimol, 10 nmol of SNC80 (n=9 mice per genotype) (F) and 0.09 mg/kg of DZP (G) (n=7 mice per genotype). Data are presented as mean±SEM for each group (*p<0.05; **p<0.01; ***p<0.001; ns: non-significant).
as §1, §2, §3, §4
20 μl of a solution containing 1% carrageenan in H2O (weight/vol, Sigma) or 20 μl of a solution containing 0.06 mg Zymosan-A in 0.9% NaCl (weight/vol, Sigma), were injected subcutaneously into the plantar side of the left hindpaw, using a 30 G needled syringe.
For carrageenan-induced inflammation, mechanical thresholds were determined prior to inflammation and at several time-points (see legend) starting from 1 hour and up to 60 days after inflammation. For zymosan inflammation, mechanical thresholds were measured prior to injection, at day 1 and at several time-points (see legend) up day 60. In addition, mechanical thresholds in the zymosan model were measured before inflammation, at day 1 and day 2, before and after drug administration.

laminae II neurons = experiment: Whole-cell patch-clamp recording of spontaneous EPSC in spinal cord slices; type: cell-based, mice
Experimental: (C-F) Whole cell recordings of spontaneous EPSC in laminae II interneurons after Musc application in naïve (C-D) and in zymosan-inflamed WT and KO mice (E-F).
Left panels: representative traces of EPSC obtained under ACSF (black traces), following superfusion of 5 μM Musc (blue traces) and during wash (brown traces).
Middle panels: Cumulative distribution of EPSC intervals (in seconds) for the experiments shown in the left panels. Note the shift of the Musc/blue curves towards the left (C, D, E middle panels), indicating a reversible increase in EPSC frequency.
Right panels: Normalized EPSC frequency (mean±SEM) under ACSF, following superfusion of 5 μM Musc and during wash. Note the absence of effect of Musc in slices from zymosan inflamed mice. The number of recorded cells is indicated in the right panels (*p<0.05; **p<0.01; ns: non-significant). (See also FIG. 8).
Transverse spinal cord slices with attached dorsal roots from juvenile (P24 to P45) Myo1a KO and WT mice were prepared for whole-cell recording. Briefly, the animals were anesthetized using Pentobarbital (200 mg/kg), perfused with ice cold oxygenated low calcium artificial cerebrospinal fluid (ACSF; in mM: NaCl 101; KCl 3.8; MgCl2 18.7, MgSO4 1.3; KH2PO4 1.2; HEPES 10; CaCl2 1; Glucose 1), and then beheaded. The vertebral column and surrounding muscles were quickly removed and immersed in ice cold oxygenated ACSF. Following laminectomy, the spinal cord was gently removed and its lumbar part was placed into a small 3% agarose block. Spinal slices (300 μm thick) were cut using a Leica VTS1000 vibratome, and transferred in warm (31° C.) ACSF (in mM: NaCl 130.5; KCl 2.4; CaCl2 2.4; NaHCO3 19.5; MgSO4 1.3; KH2PO4 1.2; HEPES 1.25; glucose 10; pH 7.4) equilibrated with 95%02-5% CO2 for at least one hour before starting patch clamp recordings. Spinal slices were placed in a recoding chamber bathed with warmed (31° C.) ACSF Electrophysiological measurements were performed under the control of an Olympus BX51 microscope using a multiclamp 2B (Molecular devices). Patch pipettes ([…]) were filled with C-based pipette solution (in mM: CsMethaneSulfonate 120; CsCl 20; CaCl2 0.1; MgCl2 1.3; EGTA 1; HEPES 10; GTP 0.1; cAMP 0.2; Leupeptin 0.1; Na2ATP 3; D-Manitol 77; pH 7.3). A glass suction electrode connected to a Master 8 (A.M.P. Instrument Ltd) stimulator was used to stimulate dorsal roots. Typically, a pair of high duration (500 μs) high intensity stimulations (350 μA) was used to recruit most primary afferent fibers in the recorded slice. All drugs were purchased from Sigma. Statistical comparison of EPSC frequencies was assessed for each cell using Kolmogorov-Smirnov test.

C[C@@H](NC(=O)[C@@H](N)Cc1ccc(O)cc1)C(=O)NCC(=O)N(C)[C@@H](Cc1ccccc1)C(=O)NCCO [DAMGO]
reversal of SNI-induced mechanical hypersensitivity (WT and Myo1a KO mice [1]): significantly reversed

C=CCN1C[C@H](C)N([C@H](c2ccc(C(=O)N(CC)CC)cc2)c2cccc(OC)c2)C[C@H]1C [SNC80]
reversal of SNI-induced mechanical hypersensitivity (WT and Myo1a KO mice [1]): significantly reversed
reversal of zymosan-induced mechanical pain (WT and Myo1a KO mice [2]; both genotypes, i.t 10 nmol SNC80): strongly reversed

TAFA4: recombinant human TAFA4 (R&D Systems), a chemokine-like protein
reversal of injury-induced mechanical hypersensitivity (conclusions summary) (WT and Myo1a KO mice [1]; Myo1a KO mice): transiently reversed
reversal of SNI-induced mechanical hypersensitivity (WT and Myo1a KO mice [1]): significantly reversed

NCC(CC(=O)O)c1ccc(Cl)cc1 (stereo not shown) [baclofen]
reversal of injury-induced mechanical hypersensitivity (conclusions summary) (WT and Myo1a KO mice [1]; Myo1a KO mice): transiently reversed
reversal of SNI-induced mechanical hypersensitivity (WT and Myo1a KO mice [1]): significantly reversed

NCc1cc(=O)[nH]o1 [muscimol]
reversal of injury-induced mechanical hypersensitivity (conclusions summary) (WT and Myo1a KO mice [1]; Myo1a KO mice): not
reversal of SNI-induced mechanical pain (WT and Myo1a KO mice [1]; Myo1a KO mice, i.t 0.15 μg muscimol): completely failed to reverse; also recorded: totally insensitive
reversal of zymosan-induced mechanical hypersensitivity (WT and Myo1a KO mice [2]; Myo1a KO mice): had no effect
reversal of zymosan-induced mechanical hypersensitivity (WT and Myo1a KO mice [2]; WT mice): strongly reversed
sEPSC frequency (laminae II neurons; naïve WT mice, bath application of 5 μM muscimol): significant increase
increase in sEPSC frequency (laminae II neurons; naïve slices from Myo1a KO mice, 5 μM muscimol): 544%
sEPSC frequency, effect relative to naïve WT (laminae II neurons; slices from WT mice inflamed with zymosan, 5 μM muscimol): almost doubled
sEPSC frequency (laminae II neurons; slices from zymosan inflamed Myo1a KO mice, 5 μM muscimol): had no effect

CC(C)C[C@H](CN)CC(=O)O [pregabalin]
reversal of injury-induced mechanical hypersensitivity (conclusions summary) (WT and Myo1a KO mice [1]; Myo1a KO mice): transiently reversed
reversal of SNI-induced mechanical hypersensitivity (WT and Myo1a KO mice [1]): significantly reversed

NCCS(=O)(=O)O [taurine]
reversal of injury-induced mechanical hypersensitivity (conclusions summary) (WT and Myo1a KO mice [1]; Myo1a KO mice): transiently reversed
reversal of SNI-induced mechanical hypersensitivity (WT and Myo1a KO mice [1]): significantly reversed

CN1C(=O)CN=C(c2ccccc2)c2cc(Cl)ccc21 [diazepam]
reversal of zymosan-induced mechanical hypersensitivity (WT and Myo1a KO mice [2]; Myo1a KO mice, 0.09 mg/kg): had no effect and not
reversal of zymosan-induced mechanical hypersensitivity (WT and Myo1a KO mice [2]; Myo1a KO mice, listed as DZP, 0.09 mg/kg): totally insensitive
reversal of zymosan-induced mechanical hypersensitivity (WT and Myo1a KO mice [2]; WT mice): strongly reversed
